system: calf thymus DNA; assay: Thermal denaturation studies on calf thymus DNA; format: binding; details: increase of denaturation temperature
Protocol: Thermal denaturation studies were performed on calf thymus DNA. Addition of the compounds of the present invention to the calf thymus DNA caused the denaturation temperature to increase approximately 11° C. (see Table 1).

First: c1ccc2c(NC3CCC(CC4CCC(Nc5c6ccccc6nc6ccccc56)CC4)CC3)c3ccccc3nc2c1 (centres unmarked)
Second: CC(C)(c1ccc(Nc2c3ccccc3nc3ccccc23)cc1)c1ccc(C(C)(C)c2ccc(Nc3c4ccccc4nc4ccccc34)cc2)cc1
The ΔTm of the first is higher: 25.9 ± 4.1 °C for the first, 10.9 ± 0.31 °C for the second.

In the case of `CC(C)(c1ccc(Oc2ccc(Nc3c4ccccc4nc4ccccc34)cc2)cc1)c1ccc(Oc2ccc(Nc3c4ccccc4nc4ccccc34)cc2)cc1`, the ΔTm is reported as 11.6 ± 0.4 °C.

system: L1210 murine leukemia cells; assay: Cytotoxicity in the murine leukemia cell line L1210 (growth inhibition, 72 hours); format: cell-based; details: Mus musculus, L1210, 72 h, read-out: ID50
Protocol: Using the methodologies disclosed by Jaycox et al. J. Heterocyclic. […] A number of intercalating agents currently in clinical use for treatment of cancer were also evaluated in this assay for comparison.
L1210 murine leukemia cells were routinely maintained as suspension cultures in McCoy's 5A medium supplemented with 10% horse serum, glutamine, penicillin, and streptomycin and grown in a humidified environment of 10% carbon dioxide and 90% air at 37° C. Compounds were dissolved in dimethyl sulfoxide (DMSO) and 40 μg was added to 4 ml of L1210 cells (10^5 cells/tube) to attain final drug concentrations of 0.01, 0.1 and 10 μg/ml of culture. After 72 hours of continuous exposure to the drug, the cell concentration was determined by a Coulter counter (Model ZBF, Hialeah, Fla.). Growth inhibition was calculated for each drug concentration using the following formula:
% growth inhibition=(1-A)×100, wherein A=[cell # treated/cell # in
The growth inhibition data were then used to calculate the ID50 value (the calculated drug concentration required to inhibit cell growth by 50% of control).

`Cn1cc(NC(=O)c2cc(NC(=O)c3cc(NC=O)cn3C)cn2C)cc1C(=O)NCCC(=N)N` [distamycin-A, reference compound] and `CC[n+]1c(-c2ccccc2)c2cc(N)ccc2c2ccc(N)cc21` [ethidium bromide, reference compound] are within 1.5-fold of each other in IC50: 6000 nM for the first, 4100 nM for the second.

same assay, conditions: Mus musculus; L1210 murine leukemia; 72 hours of continuous exposure; concentration which inhibits growth of 50% of the cells; read-out: ID50 (the source's name)

`c1ccc2c(N[C@H]3CC[C@@H](C[C@H]4CC[C@@H](Nc5c6ccccc6nc6ccccc56)CC4)CC3)c3ccccc3nc2c1` and `c1ccc2c(N[C@H]3CC[C@@H](C[C@H]4CC[C@H](Nc5c6ccccc6nc6ccccc56)CC4)CC3)c3ccccc3nc2c1` are within 1.5-fold of each other in IC50: 440 nM for the first, 560 nM for the second.

First: c1ccc2c(N[C@H]3CC[C@H](C[C@H]4CC[C@H](Nc5c6ccccc6nc6ccccc56)CC4)CC3)c3ccccc3nc2c1
Second: c1cc(Nc2c3ccccc3nc3ccccc23)cc(Oc2cccc(Oc3cccc(Nc4c5ccccc5nc5ccccc45)c3)c2)c1
The IC50 of the first is 12-fold lower: 500 nM for the first, 5900 nM for the second. The first is the more potent here.

First: CC(C)(c1ccc(Oc2ccc(Nc3c4ccccc4nc4ccccc34)cc2)cc1)c1ccc(Oc2ccc(Nc3c4ccccc4nc4ccccc34)cc2)cc1
Second: CC(C)(c1ccc(Nc2c3ccccc3nc3ccccc23)cc1)c1ccc(C(C)(C)c2ccc(Nc3c4ccccc4nc4ccccc34)cc2)cc1
The IC50 of the first is lower: 5400 nM for the first, greater than 13000 nM for the second. The first is the more potent here.

`Cc1cc2cccnc2c2ncccc12` [5-methyl-1,10-phenanthroline, reference compound] and `Nc1c2ccccc2nc2ccccc12` [9-aminoacridine] are within 1.5-fold of each other in IC50: 2000 nM for the first, 2300 nM for the second.

For `Cc1c2ccncc2c(C)c2c1[nH]c1ccccc12` [ellipticine, reference compound], the IC50 was 530 nM.

system: DNA; assay: not given; details: DNA binding characteristics of acridine dimers, Le Pecq et al. 1975; cited from earlier work

In the case of `COc1ccc2nc3cc(Cl)ccc3c(NCCCNCCCCNCCCNc3c4ccc(Cl)cc4nc4ccc(OC)cc34)c2c1` [IIA], the “mode of intercalation (bis- or monofunctional)” value (“mode of intercalation” for short) is given as “bisintercalated”.
For `COc1ccc2nc3cc(Cl)ccc3c(NCCCCNCCCNc3c4ccc(Cl)cc4nc4ccc(OC)cc34)c2c1` [IIB], the “mode of intercalation” value is listed as “bisintercalated”.
In the case of `COc1ccc2nc3cc(Cl)ccc3c(NCCCNCCCNc3c4ccc(Cl)cc4nc4ccc(OC)cc34)c2c1` [III], the “mode of intercalation” value is listed as “only one of the two rings of the dimer with the shortest chain (III) of 9 angstroms was intercalated”.

— US6187787A, “Bis(9-aminoacridine) DNA intercalating agents having antitumor activity” (Trustees of Dartmouth College, priority 2000, dated 2001)
